From patent publication US20230263822A1, “MODULATION OF FACTOR 11 EXPRESSION” (Ionis Pharmaceuticals, Inc., priority 2008, published 2023)
Strand notation (5' to 3'): a small letter for the sugar, then the base; units joined by * are phosphorothioate-linked, units joined directly phosphodiester-linked; [ ] holds rarer units or linkages, { } end groups; capitals alone tell only the bases. e = 2'-O-(2-methoxyethyl) (MOE); [5mC] = 5-methylcytosine; d = 2'-deoxy (DNA)

test system: human Factor 11 mRNA; experiment: Antisense inhibition of human Factor 11 in HepG2 cells, electroporation, 8,000 nM (Example 30); assay type: cell-based; details: electroporation, 8,000 nM antisense oligonucleotide
Description: These microwalk gapmers were tested in vitro. Cultured HepG2 cells at a density of 20,000 cells per well were transfected using electroporation with 8,000 nM antisense oligonucleotide. After a treatment period of approximately 24 hours, RNA was isolated from the cells and Factor 11 mRNA levels were measured by quantitative real-time PCR. Factor 11 mRNA levels were adjusted according to total RNA content, as measured by RIBOGREEN. Results are presented as percent inhibition of Factor 11, relative to untreated control cells.
The chimeric antisense oligonucleotides in Table 44 were designed as 5-10-5 MOE, 5-8-5 and 6-8-6 MOE gapmers. The first two listed gapmers in Table 44 are the original gapmers (ISIS 416850 and ISIS 416858) from which ISIS 445493-445543 were designed via microwalk, and are designated by an asterisk. The 5-10-5 gapmers are 20 nucleotides in length, wherein the central gap segment is comprised of ten 2′-deoxynucleotides and is flanked on both sides (in the 5′ and 3′ directions) by wings comprising five nucleotides each. The 5-8-5 gapmers are 18 nucleotides in length, wherein the central gap segment is comprised of eight 2′-deoxynucleotides and is flanked on both sides (in the 5′ and 3′ directions) by wings comprising five nucleotides each. The 6-8-6 gapmers are 20 nucleotides in length, wherein the central gap segment is comprised of eight 2′-deoxynucleotides and is flanked on both sides (in the 5′ and 3′ directions) by wings comprising six nucleotides each. For each of the motifs (5-10-5, 5-8-5 and 6-8-6), each nucleotide in the 5′ wing segment and each nucleotide in the 3′ wing segment has a 2′-MOE modification. The internucleoside linkages throughout each gapmer are phosphorothioate (P=S) linkages. All cytidine residues throughout each gapmer are 5-methylcytidines. “Human Target start site” indicates the 5′-most nucleotide to which the gapmer is targeted in the human sequence. “Human Target stop site” indicates the 3′-most nucleotide to which the gapmer is targeted in the human sequence. Each gapmer listed in Table 44 is targeted to SEQ ID NO: 1 (GENBANK Accession No. NM_000128.3). Each gapmer is Table 44 is also fully cross-reactive with the rhesus monkey Factor 11 gene sequence, designated herein as SEQ ID NO: 274 (exons 1-15 GENBANK Accession No. NW_001118167.1). ‘Rhesus monkey start site’ indicates the 5′-most nucleotide to which the gapmer is targeted in the rhesus monkey sequence. ‘Rhesus monkey stop site’ indicates the 3′-most nucleotide to which the gapmer is targeted to the rhesus monkey sequence.

Compared with “445495 (antisense eG*e[5mC]*eA*e[5mC]*eA*eG*dT*dT*dT*d[5mC]*dT*dG*dG*d[5mC]*eA*eG*eG*e[5mC]*e[5mC]*eT) [compound 445495]”, “445520 (antisense eA*e[5mC]*eA*eG*eT*dT*dT*d[5mC]*dT*dG*dG*d[5mC]*dA*eG*eG*e[5mC]*e[5mC]*eT) [compound 445520]” is lower in “Percent inhibition of human Factor 11 mRNA levels” value (“Percent inhibition” below): 89% for the first, 82% for the second.

Compared with “445506 (antisense eA*e[5mC]*eG*eG*e[5mC]*eA*dT*dT*dG*dG*dT*dG*d[5mC]*dA*e[5mC]*eA*eG*eT*eT*eT) [compound 445506]”, “445528 (antisense eA*eT*eT*eG*eG*dT*dG*d[5mC]*dA*d[5mC]*dA*dG*dT*eT*eT*e[5mC]*eT*eG) [compound 445528]” is lower in “Percent inhibition” value: 86% for the first, 73% for the second.

Going from “445519 (antisense e[5mC]*eA*eG*eT*eT*dT*d[5mC]*dT*dG*dG*d[5mC]*dA*dG*eG*e[5mC]*e[5mC]*eT*e[5mC]) [compound 445519]” to “445527 (antisense eT*eT*eG*eG*eT*dG*d[5mC]*dA*d[5mC]*dA*dG*dT*dT*eT*e[5mC]*eT*eG*eG) [compound 445527]”, the “Percent inhibition” value falls from 81% to 70%.

Compared with “445507 (antisense eG*eA*e[5mC]*eG*eG*e[5mC]*dA*dT*dT*dG*dG*dT*dG*d[5mC]*eA*e[5mC]*eA*eG*eT*eT) [compound 445507]”, “445515 (antisense eT*eG*eG*e[5mC]*eA*eG*d[5mC]*dG*dG*dA*d[5mC]*dG*dG*d[5mC]*eA*eT*eT*eG*eG*eT) [compound 445515]” is lower in “Percent inhibition” value: 85% for the first, 75% for the second.

Going from “445525 (antisense eG*eG*eT*eG*e[5mC]*dA*d[5mC]*dA*dG*dT*dT*dT*d[5mC]*eT*eG*eG*e[5mC]*eA) [compound 445525]” to “445499 (antisense eT*eG*eG*eT*eG*e[5mC]*dA*d[5mC]*dA*dG*dT*dT*dT*d[5mC]*eT*eG*eG*e[5mC]*eA*eG) [compound 445499]”, the “Percent inhibition” value falls from 85% to 75%.

Going from “445542 (antisense eT*eG*eG*e[5mC]*eA*dG*d[5mC]*dG*dG*dA*d[5mC]*dG*dG*e[5mC]*eA*eT*eT*eG) [compound 445542]” to “445543 (antisense e[5mC]*eT*eG*eG*e[5mC]*dA*dG*d[5mC]*dG*dG*dA*d[5mC]*dG*eG*e[5mC]*eA*eT*eT) [compound 445543]”, the “Percent inhibition” value falls from 83% to 74%.

“445540 (antisense eG*e[5mC]*eA*eG*e[5mC]*dG*dG*dA*d[5mC]*dG*dG*d[5mC]*dA*eT*eT*eG*eG*eT) [compound 445540]” and “445517 (antisense eA*e[5mC]*eT*eG*eG*e[5mC]*dA*dG*d[5mC]*dG*dG*dA*d[5mC]*dG*eG*e[5mC]*eA*eT*eT*eG) [compound 445517]” are the same in “Percent inhibition” value: 74% for the first, 74% for the second.

First: 445535 (antisense eG*eG*eA*e[5mC]*eG*dG*d[5mC]*dA*dT*dT*dG*dG*dT*eG*e[5mC]*eA*e[5mC]*eA) [compound 445535]
Second: 445518 (antisense eA*eG*eT*eT*eT*d[5mC]*dT*dG*dG*d[5mC]*dA*dG*dG*e[5mC]*e[5mC]*eT*e[5mC]*eG) [compound 445518]
The “Percent inhibition” value of the first is higher: 83% for the first, 75% for the second.

First: 445536 (antisense e[5mC]*eG*eG*eA*e[5mC]*dG*dG*d[5mC]*dA*dT*dT*dG*dG*eT*eG*e[5mC]*eA*e[5mC]) [compound 445536]
Second: 445510 (antisense eG*e[5mC]*eG*eG*eA*e[5mC]*dG*dG*d[5mC]*dA*dT*dT*dG*dG*eT*eG*e[5mC]*eA*e[5mC]*eA) [compound 445510]
The “Percent inhibition” value of the first is lower: 82% for the first, 88% for the second.

First: 445514 (antisense eG*eG*e[5mC]*eA*eG*e[5mC]*dG*dG*dA*d[5mC]*dG*dG*d[5mC]*dA*eT*eT*eG*eG*eT*eG) [compound 445514]
Second: 445541 (antisense eG*eG*e[5mC]*eA*eG*d[5mC]*dG*dG*dA*d[5mC]*dG*dG*d[5mC]*eA*eT*eT*eG*eG) [compound 445541]
The “Percent inhibition” value of the first is higher: 81% for the first, 80% for the second.

Compared with “445493 (antisense eA*e[5mC]*eA*eG*eT*eT*dT*d[5mC]*dT*dG*dG*d[5mC]*dA*dG*eG*e[5mC]*e[5mC]*eT*e[5mC]*eG) [compound 445493]”, “445497 (antisense eG*eT*eG*e[5mC]*eA*e[5mC]*dA*dG*dT*dT*dT*d[5mC]*dT*dG*eG*e[5mC]*eA*eG*eG*e[5mC]) [compound 445497]” is higher in “Percent inhibition” value: 69% for the first, 81% for the second.

Going from “445533 (antisense eA*e[5mC]*eG*eG*e[5mC]*dA*dT*dT*dG*dG*dT*dG*d[5mC]*eA*e[5mC]*eA*eG*eT) [compound 445533]” to “445501 (antisense eA*eT*eT*eG*eG*eT*dG*d[5mC]*dA*d[5mC]*dA*dG*dT*dT*eT*e[5mC]*eT*eG*eG*e[5mC]) [compound 445501]”, the “Percent inhibition” value falls from 87% to 83%.

Going from “445538 (antisense eA*eG*e[5mC]*eG*eG*dA*d[5mC]*dG*dG*d[5mC]*dA*dT*dT*eG*eG*eT*eG*e[5mC]) [compound 445538]” to “445537 (antisense eG*e[5mC]*eG*eG*eA*d[5mC]*dG*dG*d[5mC]*dA*dT*dT*dG*eG*eT*eG*e[5mC]*eA) [compound 445537]”, the “Percent inhibition” value falls from 80% to 78%.

Compared with “445508 (antisense eG*eG*eA*e[5mC]*eG*eG*d[5mC]*dA*dT*dT*dG*dG*dT*dG*e[5mC]*eA*e[5mC]*eA*eG*eT) [compound 445508]”, “445524 (antisense eG*eT*eG*e[5mC]*eA*d[5mC]*dA*dG*dT*dT*dT*d[5mC]*dT*eG*eG*e[5mC]*eA*eG) [compound 445524]” is lower in “Percent inhibition” value: 81% for the first, 75% for the second.

“445529 (antisense e[5mC]*eA*eT*eT*eG*dG*dT*dG*d[5mC]*dA*d[5mC]*dA*dG*eT*eT*eT*e[5mC]*eT) [compound 445529]” and “445494 (antisense e[5mC]*eA*e[5mC]*eA*eG*eT*dT*dT*d[5mC]*dT*dG*dG*d[5mC]*dA*eG*eG*e[5mC]*e[5mC]*eT*e[5mC]) [compound 445494]” are the same in “Percent inhibition” value: 85% for the first, 85% for the second.

First: 445496 (antisense eT*eG*e[5mC]*eA*e[5mC]*eA*dG*dT*dT*dT*d[5mC]*dT*dG*dG*e[5mC]*eA*eG*eG*e[5mC]*e[5mC]) [compound 445496]
Second: 445516 (antisense e[5mC]*eT*eG*eG*e[5mC]*eA*dG*d[5mC]*dG*dG*dA*d[5mC]*dG*dG*e[5mC]*eA*eT*eT*eG*eG) [compound 445516]
The “Percent inhibition” value of the first is higher: 87% for the first, 79% for the second.

Compared with “445523 (antisense eT*eG*e[5mC]*eA*e[5mC]*dA*dG*dT*dT*dT*d[5mC]*dT*dG*eG*e[5mC]*eA*eG*eG) [compound 445523]”, “445526 (antisense eT*eG*eG*eT*eG*d[5mC]*dA*d[5mC]*dA*dG*dT*dT*dT*e[5mC]*eT*eG*eG*e[5mC]) [compound 445526]” is higher in “Percent inhibition” value: 73% for the first, 81% for the second.

For “445511 (antisense eA*eG*e[5mC]*eG*eG*eA*d[5mC]*dG*dG*d[5mC]*dA*dT*dT*dG*eG*eT*eG*e[5mC]*eA*e[5mC]) [compound 445511]”, the “Percent inhibition” value was 77%.
